In US9181273B2, “Morpholine-spirocyclic piperidine amides as modulators of ion channels” (Vertex Pharmaceuticals Incorporated, priority 2011, dated 2015) one finds IC50 data, which are given here for 49 compounds.

SMILES strings stand for the structures.

As a reminder, the IC50 is the concentration that inhibits the measured activity by half.

Sequence of human NaV subtype, like NaV 1.7 (Q15858 whole entry): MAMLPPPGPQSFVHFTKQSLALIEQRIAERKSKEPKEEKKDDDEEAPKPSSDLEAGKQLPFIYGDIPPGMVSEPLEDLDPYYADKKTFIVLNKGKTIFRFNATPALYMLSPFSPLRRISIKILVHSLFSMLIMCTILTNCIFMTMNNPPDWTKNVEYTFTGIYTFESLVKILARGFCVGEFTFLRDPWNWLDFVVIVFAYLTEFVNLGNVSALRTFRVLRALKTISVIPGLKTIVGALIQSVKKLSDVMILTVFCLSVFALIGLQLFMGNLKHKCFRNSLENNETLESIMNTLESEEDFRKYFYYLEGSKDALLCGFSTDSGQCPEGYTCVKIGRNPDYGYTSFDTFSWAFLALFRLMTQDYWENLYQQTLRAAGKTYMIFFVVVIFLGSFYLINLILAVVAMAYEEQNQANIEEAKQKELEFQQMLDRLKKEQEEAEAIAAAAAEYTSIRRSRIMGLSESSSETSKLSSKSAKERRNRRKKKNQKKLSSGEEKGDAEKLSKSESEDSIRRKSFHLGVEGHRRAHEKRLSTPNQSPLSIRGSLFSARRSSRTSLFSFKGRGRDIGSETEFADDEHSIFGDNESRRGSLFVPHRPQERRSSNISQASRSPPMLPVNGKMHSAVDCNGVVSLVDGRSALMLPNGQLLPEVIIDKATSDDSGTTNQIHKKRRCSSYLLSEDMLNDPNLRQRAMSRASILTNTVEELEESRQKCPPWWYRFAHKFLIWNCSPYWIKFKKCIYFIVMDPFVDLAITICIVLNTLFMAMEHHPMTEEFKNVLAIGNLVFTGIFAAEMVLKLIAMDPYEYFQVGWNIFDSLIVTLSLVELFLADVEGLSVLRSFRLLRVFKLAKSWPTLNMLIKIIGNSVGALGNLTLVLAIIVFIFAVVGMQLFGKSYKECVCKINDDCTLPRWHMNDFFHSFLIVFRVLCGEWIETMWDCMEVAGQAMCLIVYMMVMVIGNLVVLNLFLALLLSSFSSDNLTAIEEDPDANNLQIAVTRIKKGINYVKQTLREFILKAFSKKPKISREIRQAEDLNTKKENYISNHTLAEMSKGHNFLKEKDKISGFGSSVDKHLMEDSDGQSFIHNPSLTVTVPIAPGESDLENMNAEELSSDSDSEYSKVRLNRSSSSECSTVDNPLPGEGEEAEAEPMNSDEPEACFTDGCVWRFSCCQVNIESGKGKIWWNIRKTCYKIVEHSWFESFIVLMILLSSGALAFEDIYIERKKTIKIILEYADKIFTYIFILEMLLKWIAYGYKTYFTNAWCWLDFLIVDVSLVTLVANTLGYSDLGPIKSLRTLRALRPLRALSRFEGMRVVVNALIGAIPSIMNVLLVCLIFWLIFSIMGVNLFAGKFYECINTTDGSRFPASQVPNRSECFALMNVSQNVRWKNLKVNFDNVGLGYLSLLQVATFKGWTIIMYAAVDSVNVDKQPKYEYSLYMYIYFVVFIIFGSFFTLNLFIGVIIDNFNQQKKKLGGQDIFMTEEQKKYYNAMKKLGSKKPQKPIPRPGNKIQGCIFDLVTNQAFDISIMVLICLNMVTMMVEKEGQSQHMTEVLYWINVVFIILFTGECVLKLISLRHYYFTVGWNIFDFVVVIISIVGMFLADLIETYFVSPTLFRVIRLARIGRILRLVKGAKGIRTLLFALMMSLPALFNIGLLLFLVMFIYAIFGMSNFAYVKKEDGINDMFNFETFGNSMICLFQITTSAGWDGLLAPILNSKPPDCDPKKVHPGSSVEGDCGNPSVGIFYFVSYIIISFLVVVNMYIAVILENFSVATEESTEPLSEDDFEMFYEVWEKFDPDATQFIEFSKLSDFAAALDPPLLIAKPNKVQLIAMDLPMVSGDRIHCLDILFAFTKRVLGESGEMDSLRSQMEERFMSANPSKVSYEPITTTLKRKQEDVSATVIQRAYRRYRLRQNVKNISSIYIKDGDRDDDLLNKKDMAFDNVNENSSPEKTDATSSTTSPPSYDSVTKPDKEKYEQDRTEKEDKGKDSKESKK

The test addresses human NaV subtype, like NaV 1.7 (Homo sapiens, UniProt Q15858). Kind of test: E-VIPR optical membrane potential assay with electrical stimulation. The conditions noted are these: active against one or more sodium channels; assay and NaV subtype not specified for Table 3; read-out: IC50 Binned Activity Data. In kind it is cell-based.
As for `CC(C)Oc1ccc(C(=O)N2CCC3(CC2)CN(CC(F)F)CC(c2cc[nH]n2)O3)cc1F` (stereo not shown) [Compound 226], the IC50 lay within 2000 to 5000 nM.

Regarding `CCN1CC(c2ccccc2)OC2(CCN(C(=O)c3ccc(OC(C)C)c(F)c3)CC2)C1` (stereo not shown) [Compound 227], the 50% inhibitory concentration (IC50) is less than 2000 nM.

Consider `COCC1CN(c2cccc(C#N)c2)CC2(CCN(C(=O)c3ccc(OC(C)C)c(C)c3)CC2)O1` (stereo not shown) [Compound 228], for which the IC50 was less than 2000 nM.

Regarding `CCn1ccc(C2CN(CC(F)F)CC3(CCN(C(=O)c4ccc(OC(C)C)c(C)c4)CC3)O2)n1` (stereo not shown) [Compound 229], the IC50 fell in the range of 2000 to 5000 nM.

In the case of `Cc1cc(C(=O)N2CCC3(CC2)CN(CC(F)F)CC(c2ncc(C(C)(C)C)o2)O3)ccc1OC(C)C` (stereo not shown) [Compound 230], the IC50 is less than 2000 nM.

As for `CC#CCN1CC(CC)OC2(CCN(C(=O)c3ccc(OC(C)C)c(C#N)c3)CC2)C1` (stereo not shown) [Compound 231], the IC50 was more than 5000 nM.

For `COCC1CN(C2CCC[C@@H](C)C2)CC2(CCN(C(=O)c3ccc(OC(C)C)c(C)c3)CC2)O1` (stereo partly shown) [Compound 232], the IC50 was less than 2000 nM.

In the case of `CCC1CN(CC(F)(F)F)CC2(CCN(C(=O)c3ccc(OC(C)C)c(C)c3)CC2)O1` (stereo not shown) [Compound 233], the half-maximal inhibitory concentration (IC50) is less than 2000 nM.

Turning to `COc1cc(C(=O)N2CCC3(CC2)CN(CC(F)(F)F)CC(c2ccccc2)O3)cc(F)c1OC(C)C` (stereo not shown) [Compound 234], the IC50 is less than 2000 nM.

As to `CCOCC1CN(c2ncccn2)CC2(CCN(C(=O)c3ccc(OC(C)C)c(C)c3)CC2)O1` (stereo not shown) [Compound 235], the IC50 is less than 2000 nM.

Turning to `CCC1CN(c2ncccn2)CC2(CCN(C(=O)c3ccc(OC(C)C)c(C)c3)CC2)O1` (stereo not shown) [Compound 236], the IC50 is less than 2000 nM.

As to `COCC1CN(c2ncccn2)CC2(CCN(C(=O)c3ccc(C4(O)CCCCC4)cc3)CC2)O1` (stereo not shown) [Compound 237], the IC50 was less than 2000 nM.

On to `CCC1CN(c2ncccn2)CC2(CCN(C(=O)c3ccc(S(=O)(=O)C(C)C)c(C)c3)CC2)O1` (stereo not shown) [Compound 238], for which the IC50 is 2000 to 5000 nM.

Consider `CC#CCN1CC(CC)OC2(CCN(C(=O)c3ccc(OC(C)C)c(F)c3)CC2)C1` (stereo not shown) [Compound 239], for which the IC50 is more than 5000 nM.

Take `COCC1CN(c2ncccn2)CC2(CCN(C(=O)c3ccc(CC(C)(C)O)cc3)CC2)O1` (stereo not shown) [Compound 240]: the IC50 is more than 5000 nM.

Regarding `CC(C)(O)c1ccc(C(=O)N2CCC3(CC2)CN(CC(F)F)CC(c2ccccc2)O3)cc1` (stereo not shown) [Compound 241], the IC50 fell in the range of 2000 to 5000 nM.

`CC#CCN1CC(CC)OC2(CCN(C(=O)c3ccc(OCC)c(C)c3)CC2)C1` (stereo not shown) [Compound 242]: the IC50 lay within 2000 to 5000 nM.

Take `CC(C)Oc1ccc(C(=O)N2CCC3(CC2)CN(CC(F)F)CC(c2ncco2)O3)cc1F` (stereo not shown) [Compound 243]: the 50% inhibitory concentration (IC50) is less than 2000 nM.

`CC(C)Oc1ccc(C(=O)N2CCC3(CC2)CN(CC(F)F)CC(c2ccc(F)cc2)O3)cc1F` (stereo not shown) [Compound 244]: the IC50 was less than 2000 nM.

On to `Cc1cc(C(=O)N2CCC3(CC2)CN(CC(F)(F)F)CC(c2ccccc2)O3)ccc1OC1COC1` (stereo not shown) [Compound 245], for which the IC50 was less than 2000 nM.

Regarding `Cc1nc(C(=O)N2CCC3(CC2)CN(CC(F)F)CC(c2ccccc2)O3)ccc1OC(C)C` (stereo not shown) [Compound 246], the IC50 is less than 2000 nM.

For `COc1cc(C(=O)N2CCC3(CC2)CN(CC(F)F)CC(c2ccc(F)cc2)O3)ccc1OC(C)(C)C` (stereo not shown) [Compound 247], the half-maximal inhibitory concentration (IC50) lay within 2000 to 5000 nM.

In the case of `CC#CCN1CC(CC)OC2(CCN(C(=O)c3ccc(OC(C)C)c(C)c3)CC2)C1` (stereo not shown) [Compound 248], the half-maximal inhibitory concentration (IC50) is less than 2000 nM.

Turning to `COCC1CN(CC(=O)C2CC2)CC2(CCN(C(=O)c3ccc(OC(C)C)c(C)c3)CC2)O1` (stereo not shown) [Compound 249], the IC50 lay within 2000 to 5000 nM.

As to `CCN1CC(c2ncc(C)s2)OC2(CCN(C(=O)c3ccc(OC(C)C)c(C)c3)CC2)C1` (stereo not shown) [Compound 250], the half-maximal inhibitory concentration (IC50) is less than 2000 nM.

As for `Cc1cc(C(=O)N2CCC3(CC2)CN(CC(F)(F)F)CC(c2ccccc2)O3)ccc1C1COC1` (stereo not shown) [Compound 251], the IC50 was less than 2000 nM.

`COCC1CN(Cc2nccs2)CC2(CCN(C(=O)c3ccc(OC(C)C)c(C)c3)CC2)O1` (stereo not shown) [Compound 252]: the IC50 lay within 2000 to 5000 nM.

For the compound `COc1cc(C(=O)N2CCC3(CC2)CN(CC(F)F)CC(c2cccc(C)n2)O3)ccc1OC(C)C` (stereo not shown) [Compound 253], the IC50 is 2000 to 5000 nM.

For `CCN1CC(COC)OC2(CCN(C(=O)c3ccc(OC(C)C)c(C)c3)CC2)C1` (stereo not shown) [Compound 254], the IC50 was 2000 to 5000 nM.

Take `COCC1CN(C2COC2)CC2(CCN(C(=O)c3ccc(OC(C)C)c(C)c3)CC2)O1` (stereo not shown) [Compound 255]: the IC50 is more than 5000 nM.

For `COCN1CC(c2cccc(OC)n2)OC2(CCN(C(=O)c3ccc(OC(C)C)c(C)c3)CC2)C1` (stereo not shown) [Compound 256], the half-inhibitory concentration (IC50) was less than 2000 nM.

Regarding `CC(C)(O)c1ccc(C(=O)N2CCC3(CC2)CN(CC(F)(F)F)CC(c2ccccc2)O3)cc1F` (stereo not shown) [Compound 257], the IC50 was less than 2000 nM.

Consider `COCC1CN(c2cccc(C(F)(F)F)c2)CC2(CCN(C(=O)c3ccc(OC(C)C)c(C)c3)CC2)O1` (stereo not shown) [Compound 258], for which the IC50 was less than 2000 nM.

In the case of `CCN1CC(c2ccc(F)cc2)OC2(CCN(C(=O)c3ccc(OC(C)C)c(F)c3)CC2)C1` (stereo not shown) [Compound 259], the IC50 was less than 2000 nM.

Take `COCC1CN(CC(F)(F)F)CC2(CCN(C(=O)c3ccc(OC(C)C)c(C)c3)CC2)O1` (stereo not shown) [Compound 260]: the IC50 is less than 2000 nM.

Regarding `Cc1cccnc1C1CN(CC(F)F)CC2(CCN(C(=O)c3ccc(OC(C)C)c(F)c3)CC2)O1` (stereo not shown) [Compound 261], the IC50 was less than 2000 nM.

Regarding `CCC1CN(CC(=O)C(C)(C)C)CC2(CCN(C(=O)c3ccc(OC(C)C)c(C)c3)CC2)O1` (stereo not shown) [Compound 262], the half-maximal inhibitory concentration (IC50) was less than 2000 nM.

As to `CC(C)Oc1ccc(C(=O)N2CCC3(CC2)CN(CC(F)F)CC(c2ccn(C)n2)O3)cc1F` (stereo not shown) [Compound 263], the 50% inhibitory concentration (IC50) was less than 2000 nM.

For `COCN1CC(c2ncccn2)OC2(CCN(C(=O)c3ccc(C4(O)CCC4)cc3)CC2)C1` (stereo not shown) [Compound 264], the IC50 is more than 5000 nM.

Turning to `Cc1cccc(C2CN(CC(F)F)CC3(CCN(C(=O)c4ccc(S(=O)(=O)C(C)C)c(C)c4)CC3)O2)n1` (stereo not shown) [Compound 265], the IC50 is 2000 to 5000 nM.

As to `CCC(=O)N1CC(c2ccccc2)OC2(CCN(C(=O)c3ccc(OC(C)C)c(C)c3)CC2)C1` (stereo not shown) [Compound 266], the IC50 fell in the range of 2000 to 5000 nM.

Consider `COCC1CN(c2ncccn2)CC2(CCN(C(=O)c3ccc(C(C)(C)O)c(C)c3)CC2)O1` (stereo not shown) [Compound 267], for which the IC50 fell in the range of 2000 to 5000 nM.

As for `Cc1cnc(C2CN(C(C)(C)C)CC3(CCN(C(=O)c4ccc(OC(C)C)c(F)c4)CC3)O2)o1` (stereo not shown) [Compound 268], the IC50 was 2000 to 5000 nM.

`CC(C)(C)S(=O)(=O)c1ccc(C(=O)N2CCC3(CC2)CN(CC(F)F)CC(c2ccc(F)cc2)O3)cc1` (stereo not shown) [Compound 269]: the half-maximal inhibitory concentration (IC50) is 2000 to 5000 nM.

As to `COCC1CN(C2CCOCC2)CC2(CCN(C(=O)c3ccc(OC(C)C)c(C)c3)CC2)O1` (stereo not shown) [Compound 270], the half-maximal inhibitory concentration (IC50) was in the range of 2000 to 5000 nM.

Turning to `CCC1CN(c2ncccn2)CC2(CCN(C(=O)c3ccc(C4(O)CCCC4)c(F)c3)CC2)O1` (stereo not shown) [Compound 271], the IC50 was less than 2000 nM.

Regarding `CCOCC1CN(CC)CC2(CCN(C(=O)c3ccc(OC(C)C)c(C)c3)CC2)O1` (stereo not shown) [Compound 272], the IC50 is more than 5000 nM.

As to `CC(C)(O)COc1ccc(C(=O)N2CCC3(CC2)CN(CC(F)(F)F)CC(c2ccccc2)O3)cc1` (stereo not shown) [Compound 273], the half-maximal inhibitory concentration (IC50) fell in the range of 2000 to 5000 nM.

In the case of `COc1cc(C(=O)N2CCC3(CC2)CN(CC(F)F)CC(c2ccc(F)cc2)O3)ccc1OC(C)C` (stereo not shown) [Compound 274], the half-inhibitory concentration (IC50) was less than 2000 nM.
